Reference: patent publication US8883410B2, “Method for determining the stability of organic methyleneamines in the presence of semicarbazide-sensitive amine oxidase” (Sanofi, priority 2007, dated 2014)

Target: T1, human SSAO T1 (Gly27-Asn763), untagged (Homo sapiens, UniProt Q16853)
T1 construct: T1 (Gly27-Asn763) Representing the Enzyme Lacking the Membrane Anchoring Region; additional N-terminal Met (N); expressed in transfected cells; cell lysate
T1 sequence (Q16853 27-763): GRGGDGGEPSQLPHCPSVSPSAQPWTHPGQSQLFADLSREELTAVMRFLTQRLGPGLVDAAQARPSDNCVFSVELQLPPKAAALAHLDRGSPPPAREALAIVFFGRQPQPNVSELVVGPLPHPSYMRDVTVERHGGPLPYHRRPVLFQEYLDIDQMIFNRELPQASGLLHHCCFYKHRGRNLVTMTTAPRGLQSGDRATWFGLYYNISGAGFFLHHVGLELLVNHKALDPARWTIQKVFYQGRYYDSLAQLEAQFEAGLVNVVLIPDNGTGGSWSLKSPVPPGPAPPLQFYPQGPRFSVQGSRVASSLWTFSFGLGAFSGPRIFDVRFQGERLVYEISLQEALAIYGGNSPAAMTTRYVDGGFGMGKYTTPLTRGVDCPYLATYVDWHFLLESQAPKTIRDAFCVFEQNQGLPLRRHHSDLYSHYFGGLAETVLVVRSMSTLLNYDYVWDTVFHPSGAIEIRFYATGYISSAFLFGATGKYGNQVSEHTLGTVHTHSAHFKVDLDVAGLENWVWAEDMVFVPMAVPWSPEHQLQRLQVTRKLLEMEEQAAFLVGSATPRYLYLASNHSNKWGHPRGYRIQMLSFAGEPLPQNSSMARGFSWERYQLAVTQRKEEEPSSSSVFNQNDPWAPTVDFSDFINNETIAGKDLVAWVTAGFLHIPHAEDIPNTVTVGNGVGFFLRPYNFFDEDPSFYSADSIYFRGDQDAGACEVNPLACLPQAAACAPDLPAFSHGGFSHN
Assay: Benzylamine stability in lysate of cells expressing T1 SSAO (untagged), LC/MS/MS
Assay type: in vitro ADME
Procedure: 3) T1 (Gly27-Asn763) Representing the Enzyme Lacking the Membrane Anchoring Region:
The expression constructs were prepared by cloning these PCR products into the pCDNA5-FRT-To-DEST vector (Invitrogen, Gateway System™). The forward and reverse DNA sequence of each construct was confirmed including expressed sequences and at least 100 base pairs either side of this. Stable cell lines for Flp-In CHO, Flp-In CHO T-Rex, and Flp-In HEK 293 (Invitrogen, Flp-In system™) were generated using these 6 constructs according to manufacturer's instructions. Cells were co-transfected with the regulatory vector, pOG44, and each of the pCDNA5-FRT-To-DEST constructs using Lipfectamine (Invitrogen) according to manufacturer's instructions. Thus, 18 cell lines were generated: CHO Flp-In full-length SSAO; CHO Flp-In full-length SSAO with C-terminal 6×HIS tag; CHO Flp-In T1 SSAO; CHO Flp-In T1 SSAO with C-terminal 6×HIS tag; CHO Flp-In T2 SSAO; CHO Flp-In T2 SSAO with C-terminal 6×HIS tag; CHO T-Rex Flp-In full-length SSAO; CHO T-Rex Flp-In full-length SSAO with C-terminal 6×HIS tag; CHO T-Rex Flp-In T1 SSAO; CHO T-Rex Flp-In T1 SSAO with C-terminal 6×HIS tag; CHO T-Rex Flp-In T2 SSAO; CHO Flp-In T2 SSAO with C-terminal 6×HIS tag; HEK 293 Flp-In full-length SSAO; HEK 293 Flp-In full-length SSAO with C-terminal 6×HIS tag; HEK 293 Flp-In T1 SSAO; HEK 293 Flp-In T1 SSAO with C-terminal 6×HIS tag; HEK 293 Flp-In T2 SSAO; HEK 293 Flp-In T2 SSAO with C-terminal 6×HIS tag.
Adherent CHO cells were cultured at 37° C., 5% CO2 in media containing Ham's F12, 10% fetal bovine serum, 2 mM L-glutamine, 1% Penicillin/Streptomycin, 300 μM hygromycin B. Adherent HEK 293 cells were cultured at 37° C., 5% CO2 in D-MEM (high glucose), 10% fetal bovine serum, 2 mM L-glutamine, and 200 μM hygromycin B. Stable transformants were identified by loss of zeocin resistance. Once the cells were 80% confluent, SSAO expression was induced by the addition of Tetracycline to 1 μg/mL. Following 18 hours, the cells were harvested using a trypsin treatment of 3 minutes, at room temperature. Cells were washed 3 times in phosphate buffered saline before flash freezing in liquid nitrogen.
For the preparation of cell lysate for activity testing, frozen cell pellets were resuspended in lysate buffer containing 10 mM Tris-HCl (pH 7.2), 150 mM NaCl, 1.5 mM MgCl2, 1% v/v NP-40 and incubated for 15 minutes on ice. Lysate was cleared by centrifugation 800×g for 10 minutes, 4° C. and stored in aliquots at −80° C. until use. Proteins were determined using Pierce Coomassie Protein Reagent, according to manufacturer's instructions.
For each assay run, 1 mL of cell lysate (1.5 mg/mL protein) was mixed with benzylamine to 2000 ng/mL final concentration. At each corresponding time point, […] the incubation mixture was transferred to a microcentrifuge tube (1.7 mL) and mixed with 50 μL of acetonitrile. The tubes were vortex mixed briefly to ensure complete mixing and then centrifuged at 10,000×g for 5 minutes. The supernatant was removed and 50 μL was transferred to an autosampler vial and mixed with 50 μL of water before LC/MS/MS analysis. Benzylamine remaining in the lysate was analyzed with LC/MS/MS method.
LC/MS/MS analysis was performed with a PE Sciex API 3000 mass spectrometer under the following conditions listed below and in Tables 1 and 2: […]

NCc1ccccc1 [Benzylamine]
Benzylamine Remaining (%) (CHO Flp-In T-Rex lysate, tag One, 0 min): 100% | Benzylamine Remaining (%) (CHO Flp-In T-Rex lysate, tag One, 10 min): 104% | Benzylamine Remaining (%) (CHO Flp-In T-Rex lysate, tag One, 2 h): 92% | Benzylamine Remaining (%) (CHO Flp-In lysate, tag None, 0 min): 100% | Benzylamine Remaining (%) (CHO Flp-In lysate, tag None, 10 min): 109% | Benzylamine Remaining (%) (CHO Flp-In lysate, tag None, 2 h): 103% | Benzylamine Remaining (%) (HEK293 lysate, tag None, 0 min): 100% | Benzylamine Remaining (%) (HEK293 lysate, tag None, 10 min): 105% | Benzylamine Remaining (%) (HEK293 lysate, tag None, 2 h): 102%
